Results reported in patent US20070049593A1 (priority 2004, published 2007).
Where a name gives a salt, the structure may show the parent alone.

target: T1, HCV polymerase (Hepatitis C virus genotype 1b, UniProt P26663); test: biochemical; design: species or system HCV BK strain
T1 construct: a region encoding NS5B (J Virol 1991 March, 65(3), 1105-13, 544 amino acids after deletion of 47 amino acids on the C-terminal); 6xHis (C); made in house; host or cells: Escherichia coli
Source text: The evaluation of the HCV polymerase inhibitory activity of the compound of the present invention is explained in the following. This polymerase is an enzyme coded for by the non-structural protein region called NS5B on the genome RNA of HCV (EMBO J., 15:12-22, 1996).
Using, as a template, a cDNA clone corresponding to the full length genome RNA of HCV BK strain obtained from the blood of a patient with hepatitis C, a region encoding NS5B (J Virol 1991 March, 65(3), 1105-13, 544 amino acids after deletion of 47 amino acids on the C-terminal) was amplified by PCR. The objective gene was prepared by adding a 6 His tag {base pair encoding 6 continuous histidine (His)}to the 3′ end thereof and transformed to Escherichia coli. The Escherichia coli capable of producing the objective protein was cultured. The obtained cells were suspended in a buffer solution and crushed in a microfluidizer.
Using a synthetic primer designed based on the sequence of HCV genomic 3′ untranslated region, a DNA fragment (148 bp) containing polyU and 3′X sequence was entirely synthesized and cloned into plasmid pBluescript SK II(+) (Stratagene). The cDNA encoding full length NS5B, which was prepared in i) above, was digested with restriction enzyme KpnI to give a cDNA fragment containing the nucleotide sequence of from the restriction enzyme cleavage site to the termination codon. This cDNA fragment was inserted into the upstream of 3′ untranslated region of the DNA in pBluescript SK II(+) and ligated. The about 450 bp inserted DNA sequence was used as a template in the preparation of substrate RNA.
RNA was synthesized (37° C., 3 hr) by run-off method using this purified DNA as a template, a promoter of pBluescript SK II(+), MEGAscript RNA synthesis kit (Ambion) and T7 RNA polymerase. DNase I was added and the mixture was incubated for 1 hr. The template DNA was removed by decomposition to give a crude RNA product.
A test substance (compound of the present invention) and a reaction mixture (30 μl) having the following composition were reacted at 25° C. for 90 min.
10% Trichloroacetic acid at 4° C. and 1% sodium pyrophosphate solution (150 μl) were added to this reaction mixture to stop the reaction. The reaction mixture was left standing in ice for 15 min to insolubilize RNA. This RNA was trapped on a glass filter (Whatman GF/C and the like) upon filtration by suction. This filter was washed with a solution containing 1% trichloroacetic acid and 0.1% sodium pyrophosphate, washed with 90% ethanol and dried. A liquid scintillation cocktail (Packard) was added and the radioactivity of RNA synthesized by the enzyme reaction was measured on a liquid scintillation counter.
The HCV polymerase inhibitory activity (IC50) of the compound of the present invention was calculated from the values of radioactivity of the enzyme reaction with and without the test substance.
Reaction mixture: HCV polymerase (0.5 μg/ml) obtained in i), substrate RNA (5 μg/ml) obtained in ii), ATP (50 μM), GTP (50 μM), CTP ([…]), UTP (2 μM), [5,6-^3H]UTP (46 Ci/mmol (Amersham), 1 μCi) 20 mM Tris-HCl (pH 7.5), EDTA (1 mM), MgCl2 (5 mM), NaCl (50 mM), DTT (1 mM), BSA (0.01%)

T1 sequence (P26663 2420-2963): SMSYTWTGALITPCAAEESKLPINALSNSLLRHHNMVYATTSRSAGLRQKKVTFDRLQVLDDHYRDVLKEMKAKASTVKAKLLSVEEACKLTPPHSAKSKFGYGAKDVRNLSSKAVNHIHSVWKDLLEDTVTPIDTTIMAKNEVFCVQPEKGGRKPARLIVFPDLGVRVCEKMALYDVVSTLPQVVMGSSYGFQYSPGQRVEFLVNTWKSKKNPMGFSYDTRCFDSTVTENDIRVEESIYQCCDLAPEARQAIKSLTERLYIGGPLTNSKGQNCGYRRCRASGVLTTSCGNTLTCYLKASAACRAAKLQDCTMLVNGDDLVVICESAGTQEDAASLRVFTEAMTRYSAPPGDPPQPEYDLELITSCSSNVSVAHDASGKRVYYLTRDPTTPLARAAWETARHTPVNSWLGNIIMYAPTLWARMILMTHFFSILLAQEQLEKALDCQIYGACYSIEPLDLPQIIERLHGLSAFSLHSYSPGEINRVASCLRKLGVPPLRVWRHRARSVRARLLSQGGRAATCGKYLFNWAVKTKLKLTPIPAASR

Row | SMILES | IC50 [nM]
1 | CCN1CCC(=C(F)CN2CCn3c(c(C4CCCCC4)c4ccc(C(=O)O)cc43)-c3ccccc32)CC1 [Example 1-175, 13-cyclohexyl-5-[2-(1-ethylpiperidin-4-ylidene)-2-fluoroethyl]-6,7-dihydro-5H-benzo[5,6][1,4]diazepino[7,1-a]indole-10-carboxylic acid dihydrochloride] | < 100
2 | CC1CCCN(CCCN2CCn3c(c(C4CCCCC4)c4ccc(C(=O)O)cc43)-c3ccc(Cl)cc32)C1 (stereo not shown) [Example 1-320, 3-chloro-13-cyclohexyl-5-[3-(3-methylpiperidin-1-yl)propyl]-6,7-dihydro-5H-benzo[5,6][1,4]diazepino[7,1-a]indole-10-carboxylic acid] | < 100
3 | CC(=O)N(C)c1ccc(N2CCOCC2)c(COc2ccc3c(c2)OCCn2c-3c(C3CCCCC3)c3ccc(C(=O)O)cc32)c1 [Example 2-18, 3-[5-(N-acetyl-N-methylamino)-2-(morpholin-4-yl)benzyloxy]-12-cyclohexyl-6,7-dihydro-5-oxa-7a-azadibenzo[a,e]azulene-9-carboxylic acid monohydrochloride] | < 100
4 | CC(C)c1ccc2c(c1)N(CCN1CCCC1)CCn1c-2c(C2CCCCC2)c2ccc(C(=O)O)cc21 [Example 1-359, 13-cyclohexyl-3-isopropyl-5-[2-(pyrrolidin-1-yl)ethyl]-6,7-dihydro-5H-benzo[5,6][1,4]diazepino[7,1-a]indole-10-carboxylic acid monohydrochloride] | < 100
5 | CC(C)C1CCN(CCN2CCn3c(c(C4CCCCC4)c4ccc(C(=O)O)cc43)-c3ccccc32)CC1 [Example 1-150, 13-cyclohexyl-5-[2-(4-isopropylpiperidin-1-yl)ethyl]-6,7-dihydro-5H-benzo[5,6][1,4]diazepino[7,1-a]indole-10-carboxylic acid dihydrochloride] | < 100
6 | CCOc1ccc2c(c1)N(CCN1CCCOCC1)CCn1c-2c(C2CCCCC2)c2ccc(C(=O)O)cc21 [Example 1-500, 13-cyclohexyl-3-ethoxy-5-[2-(1,4-oxazepan-4-yl)ethyl]-6,7-dihydro-5H-benzo[5,6][1,4]diazepino[7,1-a]indole-10-carboxylic acid dihydrochloride] | < 100
7 | COc1ccc2c(c1)N(C)CCn1c-2c(C2CCCCC2)c2ccc(C(=O)O)cc21 [Example 1-594, 13-cyclohexyl-3-methoxy-5-methyl-6,7-dihydro-5H-benzo[5,6][1,4]diazepino[7,1-a]indole-10-carboxylic acid] | < 100
8 | COCC[C@@H]1CCCN(CCN2CCn3c(c(C4CCCCC4)c4ccc(C(=O)O)cc43)-c3ccc(Cl)cc32)C1 [Example 1-397, 3-chloro-13-cyclohexyl-5-{2-[(S)-3-(2-methoxyethyl)piperidin-1-yl]ethyl}-6,7-dihydro-5H-benzo[5,6][1,4]diazepino[7,1-a]indole-10-carboxylic acid dihydrochloride] | < 100
9 | CCN(CC)CC(C)(C)CN1CCn2c(c(C3CCCCC3)c3ccc(C(=O)O)cc32)-c2ccc(Cl)cc21 [Example 1-436, 3-chloro-13-cyclohexyl-5-(3-diethylamino-2,2-dimethylpropyl)-6,7-dihydro-5H-benzo[5,6][1,4]diazepino[7,1-a]indole-10-carboxylic acid dihydrochloride] | < 100
10 | COC(=O)[C@H](Cc1ccncc1)NC(=O)c1ccc2c(C3CCCCC3)c3n(c2c1)CCOc1cc(OC)ccc1-3 [Example 2-356, methyl (S)-2-[(12-cyclohexyl-3-methoxy-6,7-dihydro-5-oxa-7a-azadibenzo[a,e]azulene-9-carbonyl)amino]-3-(pyridin-4-yl)propionate] | < 100
11 | CC(C)(C)NC(=O)c1ccc2c(C3CCCCC3)c3n(c2c1)CCOc1ccccc1-3 [Example 2-165, N-tert-butyl-12-cyclohexyl-6,7-dihydro-5-oxa-7a-azadibenzo[a,e]azulene-9-carboxamide] | 100 to 1000
12 | O=C(O)c1ccc2c(C3CCCCC3)c3n(c2c1)CCN(CCN1C[C@H]2CCCC[C@H]2C1)c1ccccc1-3 [Example 1-183, 13-cyclohexyl-5-[(3aS,7aR)-2-(octahydroisoindol-2-yl)ethyl]-6,7-dihydro-5H-benzo[5,6][1,4]diazepino[7,1-a]indole-10-carboxylic acid dihydrochloride] | < 100
13 | COc1ccc2c(c1)OCCn1c-2c(C2CCCCC2)c2ccc(C(=O)NC(C)(C)c3nc4ccc(C(=O)N5CCN(C)CC5)cc4[nH]3)cc21 [Example 2-418, N-(1-methyl-1-[6-(4-methylpiperazine-1-carbonyl)-1H-benzimidazol-2-yl]ethyl}-12-cyclohexyl-3-methoxy-6,7-dihydro-5-oxa-7a-azadibenzo[a,e]azulene-9-carboxamide] | < 100
14 | CCN(CCCCOC)C(=O)C(C)(C)NC(=O)c1ccc2c(C3CCCCC3)c3n(c2c1)CCOc1ccccc1-3 [Example 2-333, N-{1-[N-ethyl-N-(4-methoxybutyl)carbamoyl]-1-methylethyl}-12-cyclohexyl-6,7-dihydro-5-oxa-7a-azadibenzo[a,e]azulene-9-carboxamide] | < 100
15 | Cc1ccc2c(c1)N(CCN1CCCC1)CCn1c-2c(C2CCCCC2)c2ccc(C(=O)O)cc21 [Example 1-260, 13-cyclohexyl-3-methyl-5-[2-(pyrrolidin-1-yl)ethyl]-6,7-dihydro-5H-benzo[5,6][1,4]diazepino[7,1-a]indole-10-carboxylic acid dihydrochloride] | < 100
16 | Cc1ccc2c(c1)N(CCC13CCC(CC1)N3CC(=O)O)CCn1c-2c(C2CCCCC2)c2ccc(C(=O)O)cc21 [Example 1-489, 5-[2-(7-carboxymethyl-7-azabicyclo[2.2.1]hept-1-yl)ethyl]-13-cyclohexyl-3-methyl-6,7-dihydro-5H-benzo[5,6][1,4]diazepino[7,1-a]indole-10-carboxylic acid] | < 100
17 | O=C(O)c1ccc2c(C3CCCCC3)c3n(c2c1)COc1ccccc1-3 [Example 4-2, 11-cyclohexyl-5-oxa-6a-azabenzo[a]fluorene-8-carboxylic acid] | 100 to 1000
18 | CCN(CC)CC(CN1CCn2c(c(C3CCCCC3)c3ccc(C(=O)O)cc32)-c2ccc(Cl)cc21)OC (stereo not shown) [Example 1-441, 3-chloro-13-cyclohexyl-5-(3-diethylamino-2-methoxypropyl)-6,7-dihydro-5H-benzo[5,6][1,4]diazepino[7,1-a]indole-10-carboxylic acid dihydrochloride] | < 100
19 | CC(C)(CNc1ccc(C#N)cc1)NC(=O)c1ccc2c(C3CCCCC3)c3n(c2c1)CCOc1ccccc1-3 [Example 2-158, N-[2-(4-cyanophenylamino)-1,1-dimethylethyl]-12-cyclohexyl-6,7-dihydro-5-oxa-7a-azadibenzo[a,e]azulene-9-carboxamide] | < 100
20 | CC(C)(NC(=O)c1ccc2c(C3CCCCC3)c3n(c2c1)CCOc1ccccc1-3)c1nc2cc(-c3nnn[nH]3)ccc2[nH]1 [Example 2-311, N-{1-methyl-1-[5-(1H-tetrazol-5-yl)-1H-benzimidazol-2-yl]ethyl}-12-cyclohexyl-6,7-dihydro-5-oxa-7a-azadibenzo[a,e]azulene-9-carboxamide] | < 100
21 | CCN1CCN(CCN2CCn3c(c(C4CCCCC4)c4ccc(C(=O)O)cc43)-c3ccc(C)cc32)CC1 [Example 1-110, 13-cyclohexyl-5-[2-(4-ethylpiperazin-1-yl)ethyl]-3-methyl-6,7-dihydro-5H-benzo[5,6][1,4]diazepino[7,1-a]indole-10-carboxylic acid trihydrochloride] | < 100
22 | CCCC1CCN(CCN2CCn3c(c(C4CCCCC4)c4ccc(C(=O)O)cc43)-c3ccccc32)CC1 [Example 1-192, 13-cyclohexyl-5-[2-(4-propylpiperidin-1-yl)ethyl]-6,7-dihydro-5H-benzo[5,6][1,4]diazepino[7,1-a]indole-10-carboxylic acid dihydrochloride] | < 100
